In brackets after ≈: the same amount, converted by molar mass.

The conditions of the data set: buffer; pH 7.4; 200.0 µM.
A word on the solubility (kinetic): it is the concentration staying in solution when a stock, usually in DMSO, is diluted into the medium. `C=C(C)C(=O)Oc1ccc(N2C(=O)[C@@H]3C4C=CC(C4)[C@@H]3C2=O)cc1` yielded a kinetic solubility of 0.0101 mg/mL (≈ 31.2 µM).

As to `COc1cccc(NC(=O)CN(C)C(=O)c2cc(C)on2)c1`, the kinetic solubility was over 0.0455 mg/mL.

For `O=S(=O)(NC1CC1)c1ccc(F)c(F)c1`, the solubility (kinetic) is over 0.035 mg/mL.

In turn, `N#CN=C(c1ccccc1)c1ccccc1` displayed a kinetic solubility of 0.0304 mg/mL (≈ 147 µM).

The compound `O=C1NCCn2ccc(=O)cc21` had a solubility (kinetic) of 0.0216 mg/mL (≈ 132 µM).

Turning to `Brc1cccc(CNCc2ccncc2)c1`, the kinetic solubility is over 0.0416 mg/mL.

`O=C(O)c1c(C(=O)O)c(-c2ccc(F)cc2)n2c1CCC2` displayed a kinetic solubility of over 0.0434 mg/mL.

Take `Cc1cccc(-c2noc(CCCC(=O)NC3CCCC3)n2)c1`: the solubility (kinetic) came out at 0.0422 mg/mL (≈ 135 µM).

`CCc1ccc(NC(=O)N[C@H](C(=O)O)C(C)CC)cc1` (some centres not stated) showed a solubility (kinetic) of over 0.0418 mg/mL.

Turning to `CC[N+](CC)(CC#CCO)CC#Cc1ccccc1.[Br-]`, the kinetic solubility stood at 0.0442 mg/mL.

`COc1ccccc1NS(=O)(=O)c1cn(C)cn1` came in with a solubility (kinetic) of over 0.0401 mg/mL.

For `CC1(C)CC(=O)c2cc(NC(=O)c3ccc(F)cc3)c(=O)oc2C1`, the kinetic solubility turned out to be 0.002 mg/mL (≈ 6.07 µM).

Turning to `FC(F)Oc1ccc(N=C2SCC3CCCCN23)cc1` (configuration not stated), the solubility (kinetic) came to 0.0153 mg/mL (≈ 51.3 µM).

Compound `Cc1cc(Br)c(NC(=O)COC(=O)C2CCCCC2)c(Br)c1` returned a solubility (kinetic) of 0.0101 mg/mL (≈ 23.3 µM).

With `Cc1cccc(NC(=O)c2cccc(C(=O)Nc3cccc(C)c3)n2)c1`, the solubility (kinetic) was under 0.0002 mg/mL.

Take `Cc1csc(NC(=O)C2CCCCC2)n1`: the solubility (kinetic) came out at 0.0199 mg/mL (≈ 88.7 µM).

The compound `CC(=O)Nc1ccc(S(=O)(=O)NCC(=O)OCC(=O)N2CC(C)OC(C)C2)cc1` (configuration not stated) displayed a kinetic solubility of over 0.0641 mg/mL.

Consider `Cc1ccc(Oc2ncccc2NC(=O)CCCC(=O)O)c2c1CCC2`, for which the kinetic solubility was over 0.0532 mg/mL.

In turn, `CC(Oc1ccccc1)C(=O)N1CCN=C1SCc1ccccc1` (configuration not stated) came in with a kinetic solubility of 0.0199 mg/mL (≈ 58.5 µM).

Take `Cc1ccc(NC(=O)CC(=O)Nc2ccc(C)cc2C)c(C)c1`: the kinetic solubility was determined as 0.0063 mg/mL (≈ 20.3 µM).

In turn, `O=C(CSc1cc(Cl)ccc1Cl)NCCCn1ccnc1` had a kinetic solubility of 0.0453 mg/mL (≈ 132 µM).

As for `Nc1nc2nonc2nc1N`, the solubility (kinetic) was over 0.0228 mg/mL.

With `C=CCON/C(CCC)=C1\C(=O)CC(C)(C)CC1=NC`, the kinetic solubility came out at 0.0349 mg/mL (≈ 125 µM).

Compound `CCCCNC(=O)O/N=C(\N)CS(=O)(=O)C(C)(C)C` had a kinetic solubility of 0.0365 mg/mL (≈ 124 µM).

Regarding `O=C(Nc1c(-c2ccccc2)nc2ccccn12)c1ccccc1F`, the solubility (kinetic) is over 0.0497 mg/mL.

With `CCC(=NCc1cccnc1)c1c(O)n(-c2ccc(C)cc2)c(=O)[nH]c1=O`, the kinetic solubility came to 0.0316 mg/mL (≈ 86.7 µM).

For `Cc1ccc(C(=O)NCC(=O)Nc2ccc3c(c2)CCC3)cc1C`, the kinetic solubility was determined as 0.0026 mg/mL (≈ 8.06 µM).

The compound `CC1CC(=O)N(C)c2cc([N+](=O)[O-])ccc2N1` (configuration not stated) yielded a kinetic solubility of over 0.0353 mg/mL.

Consider `O=C(NCc1ccccn1)Nc1ccc(F)c(Cl)c1`, for which the kinetic solubility was over 0.042 mg/mL.

For `CC1CCCN(C(=O)CN2C(=O)C(C)Oc3ccccc32)C1` (configuration not stated), the kinetic solubility was over 0.0454 mg/mL.

With `COc1ccc(SCCC(=O)NCc2ccncc2)cc1`, the kinetic solubility is over 0.0454 mg/mL.

Compound `CC(C)c1cc(C(=O)O)c2ccccc2n1` had a kinetic solubility of 0.0282 mg/mL (≈ 131 µM).

For `C=CCOc1ccc(C(=O)n2cc(C(=O)OC)c3ccccc32)cc1`, the solubility (kinetic) was under 0.0007 mg/mL.

`CCc1nc(-c2ccccc2)c2ccccn12.O=C(O)C(=O)O` returned a kinetic solubility of 0.0381 mg/mL.

For the compound `N/C(=N\c1nc2ccccc2o1)NC(=O)c1cccc(Br)c1`, the solubility (kinetic) was under 0.0002 mg/mL.

`COc1cc(OC)cc(C(=O)NCCCCNC(=O)c2cc(OC)cc(OC)c2)c1`: the solubility (kinetic) is 0.0011 mg/mL (≈ 2.64 µM).

With `COc1ccc(NC(=O)CS(=O)(=O)c2ccc(C)cc2)c(OC)c1`, the solubility (kinetic) was over 0.0524 mg/mL.

`COc1ccc(C(=O)/C=C/c2ccc(N(C)C)cc2)c(OC)c1`: the solubility (kinetic) was 0.0032 mg/mL (≈ 10.3 µM).

Compound `COc1ccc(OCC(=O)Nc2nc3c(s2)CCCC3)cc1` had a kinetic solubility of 0.0143 mg/mL (≈ 44.9 µM).

Turning to `COc1ccc(S(=O)(=O)NCCC(=O)OCC(=O)NC2CC2)cc1`, the solubility (kinetic) was over 0.0535 mg/mL.

Turning to `NC1=NC(=O)C(Cc2ccc(F)cc2)S1` (configuration not stated), the solubility (kinetic) was found to be 0.022 mg/mL (≈ 98.1 µM).

In turn, `COc1ccc(C2CC(=O)N(c3ccccc3)C3=C2C(=O)CCC3)cc1` (configuration not stated) showed a solubility (kinetic) of 0.0489 mg/mL (≈ 141 µM).

As for `CCOC(=O)C1CCN(C(=O)CC2(CC(=O)O)CCCC2)CC1`, the kinetic solubility was found to be 0.0455 mg/mL (≈ 140 µM).

`CCOC(=O)/C=C1\SCC(=O)N1CC(=O)Nc1cccc(F)c1` gave a solubility (kinetic) of 0.0171 mg/mL (≈ 50.5 µM).

The compound `CSc1ccc(CNC(C)(C)CO)cc1.Cl` came in with a solubility (kinetic) of over 0.0393 mg/mL.

In turn, `N#CCCN(C(=O)COC(=O)c1cc(=O)[nH]c2ccccc12)c1ccccc1` came in with a kinetic solubility of over 0.0563 mg/mL.

Take `COc1ccc(NC(=O)CCCSc2ccccc2)cc1`: the solubility (kinetic) was found to be 0.0172 mg/mL (≈ 57.1 µM).

Compound `COc1cccc(NC(=O)CN2C(=O)NC(C)(C3CC3)C2=O)c1` (configuration not stated) displayed a solubility (kinetic) of over 0.0476 mg/mL.

As for `O=C(Nc1cc([N+](=O)[O-])ccc1Cl)c1cccnc1`, the kinetic solubility was 0.0264 mg/mL (≈ 95.1 µM).

In turn, `O=C(Cc1c(F)cccc1Cl)N1CCOCC1` showed a solubility (kinetic) of over 0.0387 mg/mL.

On to `Nc1nc(CCl)nc(Nc2cccc3ccccc23)n1`, for which the solubility (kinetic) was determined as 0.041 mg/mL (≈ 143 µM).

The compound `CCOc1ccccc1NC(=O)c1cccc(N2C(=O)CCC2=O)c1` returned a solubility (kinetic) of over 0.0508 mg/mL.
